In patent publication US12514814B2, “Composition containing extract of Lilium hansonii leichtlin ex baker” (LG HOUSEHOLD & HEALTH CARE LTD., priority 2019, dated 2026):
Values belong to the compound of their own block, whether it stands above or below them.

Tests used:
[1] = system: human-derived fibroblasts; assay: Effect of increasing total collagen amount (PICP EIA kit); format: cell-based; details: 52.8 μg/ml; cultured one day; relative to control without additive; n=3
Protocol: The Lilium hansonii extracts and the three types of Lilium genus plant extracts were added to a culture medium containing human-derived fibroblasts, and then their effects of increasing a total collagen amount at the cellular level were compared. The increased total collagen amount was quantified using a Procollagen Type I C-Peptide Enzyme ImmunoAssay kit (PICP EIA kit). […] After adding each sample to a culture medium containing human-derived fibroblasts and culturing for one day, the culture medium was collected and a degree of increase in a total collagen amount at each concentration was measured at 450 nm using a PICP EIA kit and a spectrophotometer. For the comparison of effects, a degree of increase in a total collagen amount was measured in the same manner for a fibroblast culture medium to which no sample was added (control) and a sample to which vitamin C was added at a final concentration of 52.8 μg/ml. The total collagen amount was measured as UV absorbance, and a rate of increase in the total collagen amount was calculated as a ratio of a total collagen amount relative to that of the control, and the results are summarized in Table 1 below.

[2] = system: tyrosinase enzyme extracted from mushrooms; assay: Tyrosinase inhibition; format: biochemical; details: 52.8 μg/ml; positive control; n=3
Protocol: A tyrosinase enzyme extracted from mushrooms and commercially available from SIGMA was used. First, tyrosine, a substrate, was dissolved in distilled water to make a solution having a concentration of 0.3 mg/ml, 1.0 ml of the solution was input into each test tube, and 1.0 ml of a potassium-phosphate buffer solution (concentration: 0.1 mol, pH: 6.8) and 0.7 ml of distilled water were added thereto. 0.2 ml of a sample solution, which had been prepared by adding one of Examples 1 to 3 of the present invention and Comparative Examples 1 to 3 to an ethanol solution at a final concentration of 100 μg/ml, was added to a reaction solution and then reacted in a 37° C. thermostat for 10 minutes. In this case, a control was prepared by adding only 0.2 ml of an ethanol solution instead of the sample solution, and vitamin C was used as a positive control. After adding 0.1 ml of a 2,500 units/ml tyrosinase solution, the reaction solution was again reacted in a 37° C. thermostat for 10 minutes. The test tube containing the reaction solution was quenched by placing in ice water to stop the reaction, and absorbance was measured at a wavelength of 475 nm using a photoelectric spectrometer, and the results are shown in Table 3 below. The tyrosinase inhibitory effect of each sample was calculated according to the following Mathematical Formula 2.

B-16 mouse melanoma cell = assay: Total melanin amount reduction; format: cell-based; details: 100 μg/ml, three days
Protocol: Each of Examples 1 to 3 and Comparative Examples 1 to 3 was added to a mouse melanoma cell (B-16 mouse melanoma cell) culture medium, and a whitening effect thereof at the cellular level was tested.
Each extract was tested after being added to the culture medium at a final concentration of 100 μg/ml, and arbutin, which was a control, was added to the medium at a concentration of 100 μg/ml. B-16 melanoma cells were treated with the experimental group or the control and then cultured for three days.
Subsequently, the cultured cells were treated with trypsin, removed from the culture vessel, and then centrifuged to extract melanin. The removed cells were treated with 1 ml of a sodium hydroxide solution (1 N) and then boiled for 10 minutes to dissolve melanin, and absorbance was measured at 400 nm using a spectrophotometer to measure the amount of produced melanin.
The amount of melanin was measured as absorbance per unit cell number (10^6 cells), and a ratio thereof relative to the total melanin amount of the control was calculated as an inhibition rate (%), and the results are summarized in Table 4.

Human dermal fibroblasts = assay: Hyaluronic acid synthesis promotion (Hyaluronan ELISA); format: cell-based; details: 10 ng/ml (10 ppb); positive control; 24 hours; control without additive = 100%
Protocol: Human dermal fibroblasts were cultured at a concentration of 1×10^5 cells/mL in a DMEM medium containing 10% fetal bovine serum and, after dispensing 500 μl thereof into each well of a 24-well plate, cultured for 18 hours. Subsequently, each sample was diluted in a DMEM medium not containing fetal bovine serum, and each sample was added at various concentrations. As a positive control, an epidermal growth factor (EGF) known to promote hyaluronic acid production was treated at a concentration of 10 ppb. After culturing for 24 hours, a cell culture medium was recovered, and the concentration of hyaluronic acid was measured using a Hyaluronan ELISA kit (R&D Systems).
In addition, the hyaluronic acid concentration of each experimental group treated with each sample was quantified based on the hyaluronic acid concentration (100%) of a control not containing an additive, and the results are shown in the following Table 5.

[3] = Glycation inhibitory activity using L-arginine and glucose; format: biochemical; details: 55 μg/ml; positive control; n=3
Protocol: To confirm an antiglycation efficacy, glycation inhibitory activity was measured using L-arginine and glucose.
A solution of 1 M L-arginine and 1 M glucose in 1 M phosphate buffer (pH 7.4) was first prepared and diluted with 1 M phosphate buffer so that the concentration of the sample was 100 μg/ml, 1 M L-arginine and 1 M phosphate buffer were mixed in a ratio of 1:4, and 80 μl thereof was dispensed into each well of a 96-well plate. To this, each sample, which was diluted to 100 μg/ml, and 100 μl of 0.01 M aminoguanidine, which was used as a positive control, were added. After sufficiently mixing the sample, finally, glucose which was diluted with 1 M phosphate buffer so that the final concentration of glucose was 0.1 M was added and then reacted at 70° C. for four hours. In the 96-well plate, absorbance was measured at 420 nm using a spectrophotometer to measure a degree of glycation.
The glycation experimental group of Mathematical Formula 3 is an experimental group in which glycation was induced by adding 1 M L-arginine and 1 M glucose, and to measure the absorbance of a sample itself, absorbance was measured at 420 nm after adding only 1 M L-arginine and the sample and no glucose.
The glycation inhibitory activity can be calculated according to the following Mathematical Formula 3. Each group was tested three times, and an average value was obtained.

- Tyrosinase inhibition rate (%) [2]: 50%
Compound: O=C1O[C@H]([C@@H](O)CO)C(O)=C1O [Vitamin C, vitamin C]
- Collagen increase rate (%) [1]: 26%

Compound: OC[C@H]1O[C@@H](Oc2ccc(O)cc2)[C@H](O)[C@@H](O)[C@@H]1O [Arbutin, arbutin]
- Total melanin amount (Abs) (B-16 mouse melanoma cell; absorbance at 400 nm per 10^6 cells, control 0.254): 0.126 Abs
- inhibition at 100 µg/mL (B-16 mouse melanoma cell; Mus musculus, 72 h, relative to control, read-out: Inhibition rate (%) (total melanin)): 50.4%

Compound: EGF: epidermal growth factor known to promote hyaluronic acid production, positive control
- Hyaluronic acid (%) (Human dermal fibroblasts): 150.9%

Compound: N=C(N)NN [Aminoguanidine, aminoguanidine]
- Glycation inhibition rate (%) [3]: 54.89%
